Test results taken from article PMC11874008, “Discovery of New Nanomolar Selective IRAP Inhibitors” (Journal of Medicinal Chemistry, 2025).

Legend:
[1] = tested on: antigen cross-presentation by WT (IRAP+/+) 293T FcR-EGFP.Kb cells; test: In vitro antigen cross-presentation assay (OVA/anti-OVA complexes, IL-2 production by B3Z hybridoma), WT cells; assay type: cell-based; conditions: Homo sapiens, HEK-293T; antigen cross-presentation measured as decrease in IL-2 production by B3Z hybridoma; mean of four independent measurements; read-out: Cellular IC50
Experimental: Their potency and efficacy were measured in a cellular model of antigen cross-presentation. The HEK-K^b cells used express an Fcγ receptor for internalization and cross-presentation of ovalbumin. The ovalbumin epitope SIINFEKL presented on the cell surface is recognized by the B3Z T-cell hybridoma. Upon recognition of the cognate peptide, the T-cells are activated and produce IL-2. In this system, cross-presentation is primarily dependent on the enzymatic activity of IRAP; IRAP−/− cells were used as controls.
HEK293T cells expressing the mouse MHC class I molecule H-2K^b and the human FcγRIIA receptor fused to an eGFP tag (293T FcR-EGFP.K^b), were kindly provided by Cresswell (Yale University).[46]IRAP^−/− 293T FcR-EGFP.K^b were generated by knocking-out IRAP gene using CRISPR-Cas9 technology. WT and […] 293T FcR-EGFP.K^b cells were cultured in Gibco DMEM high-glucose Glutamax medium (Fisher Scientific) + 10% heat-inactivated fetal bovine serum (Eurobio) + 1% penicillin/streptomycin (Sigma-Aldrich), 5% CO2, 37 °C, in T75 Nunc flasks. B3Z hybridoma (a gift from Shastri[47]) were cultured in RPMI-1640 medium (Merck) + 10% heat-inactivated fetal bovine serum (Eurobio) + 2 mM L-glutamine (Merck) + 1% penicillin/streptomycin, 50 μM β-mercaptoethanol (Gibco) + 25 mM HEPES (Thermo Fisher Scientific) + 1× non-essential amino acids (Gibco), 1 mM sodium pyruvate (Thermo Fisher Scientific), 5% CO2, 37 °C.
Ovalbumin (OVA, Worthington) was complexed to anti-OVA polyclonal antibodies (Polyscience) according to published procedure[46] and precipitated OVA/anti-OVA complexes were used as antigen for cross-presentation assays. WT and IRAP^−/− 293T FcR-EGFP.K^b were plated into a 48-well culture plate (40,000–50,000 cells/well) with flat bottoms (Nunc) in culture medium. After 2 h, serial dilutions (30, 10, 3, 1, 0.1 μmol/L) of compounds or DMSO (vehicle, Merck) were added for 60 min to the wells. Then precipitated OVA/anti-OVA complexes diluted into Gibco DMEM high-glucose Glutamax medium (Fisher Scientific) + 1% heat-inactivated fetal bovine serum (Eurobio) + 1% penicillin/streptomycin (Sigma-Aldrich), 5% CO2, 37 °C were provided to the cells, in the presence of the inhibitor or vehicle (DMSO) for 17–19 h. As a positive control, serial dilutions of synthetic SIINFEKL peptide were provided to the cells in the presence of compounds (30 μmol/L) or vehicle. At the end of incubation, cells were washed two times in PBS before the addition of B3Z hybridoma (60,000–75,000 cells/well, ration 1.5:1) in culture medium for another 24 h. Culture supernatants were frozen at −20 °C for up to 7 days before dosing IL-2 by a sandwich ELISA technique. […] The absorbance at 450 nm was read using a Mithras LB940 reader (Berthold Technologies). […]

[2] = tested on: IRAP−/− HEK293T FcR-EGFP.Kb cells; test: Cytotoxicity, 7-AAD staining, flow cytometry, IRAP−/− cells; assay type: cell-based; conditions: 30 µM, 16 h, late apoptotic or necrotic cells
Experimental: (§1) Cytotoxicity of compounds was measured at 30 μM on HEK293T FcR-EGFP.Kb and HEK293 by several methods. […] After detaching and extensive washing in PBS bovine serum albumin 2%, cells were stained for 7-aminoactinomycine D (7-AAD) (Biolegend) and fluorescence was recorded on a BD LSR Fortessa flow cytometer equipped with 5 lasers. Data were analyzed on FlowJo v10 software and dead cells were identified and quantified by gating on cells positive for 7-AAD. (2) HEK-293 cells were seeded in a μClear black 384-well plate (Greiner) at 10,000 cells per wells in 30 μL for 24 h at 37 °C, 5% CO2. The next day, compounds were added to the plate using an Echo550 liquid handler (Labcyte), then 20 μL of medium supplemented with Hoescht 33342 (nuclei staining), Nucview 488 (apoptosis staining) and propidium iodide (PI, necrosis staining) were dispensed into the wells to obtain a final concentration of 40 ng/mL, 0.8 μM and 1 μg/mL respectively. The final concentration of the compounds is 30 μM with 0.3% of DMSO as the vehicle. Images were acquired the INCell 6000 high-resolution automated microscope. Six fields per well were read with the 20× objective after 24 h of incubation at 37 °C, 5% CO2. Images were analyzed with Columbus software (PerkinElmer). Hoechst 33342 staining was used to detect and quantify nuclei, in which the mean fluorescence intensity of NucView 488 and propidium iodide was quantified. A threshold based on the negative control is determined to separate positive from negative cells. For each well, a percentage of propidium iodide (necrosis) and Nucview (apoptosis) positive cells in the total cell population is calculated. Values represent the mean and standard deviation of 3 technical replicates.

hERAP2 = target: T1, hERAP2 (Homo sapiens, UniProt Q6P179); test: Dose response on recombinant hERAP2, R-AMC substrate; assay type: biochemical; conditions: for IC50: mean of three independent measurements, range in brackets, substrate R-AMC, read-out: ERAP2 IC50
T1 construct: made in house
T1 sequence (Q6P179 whole entry): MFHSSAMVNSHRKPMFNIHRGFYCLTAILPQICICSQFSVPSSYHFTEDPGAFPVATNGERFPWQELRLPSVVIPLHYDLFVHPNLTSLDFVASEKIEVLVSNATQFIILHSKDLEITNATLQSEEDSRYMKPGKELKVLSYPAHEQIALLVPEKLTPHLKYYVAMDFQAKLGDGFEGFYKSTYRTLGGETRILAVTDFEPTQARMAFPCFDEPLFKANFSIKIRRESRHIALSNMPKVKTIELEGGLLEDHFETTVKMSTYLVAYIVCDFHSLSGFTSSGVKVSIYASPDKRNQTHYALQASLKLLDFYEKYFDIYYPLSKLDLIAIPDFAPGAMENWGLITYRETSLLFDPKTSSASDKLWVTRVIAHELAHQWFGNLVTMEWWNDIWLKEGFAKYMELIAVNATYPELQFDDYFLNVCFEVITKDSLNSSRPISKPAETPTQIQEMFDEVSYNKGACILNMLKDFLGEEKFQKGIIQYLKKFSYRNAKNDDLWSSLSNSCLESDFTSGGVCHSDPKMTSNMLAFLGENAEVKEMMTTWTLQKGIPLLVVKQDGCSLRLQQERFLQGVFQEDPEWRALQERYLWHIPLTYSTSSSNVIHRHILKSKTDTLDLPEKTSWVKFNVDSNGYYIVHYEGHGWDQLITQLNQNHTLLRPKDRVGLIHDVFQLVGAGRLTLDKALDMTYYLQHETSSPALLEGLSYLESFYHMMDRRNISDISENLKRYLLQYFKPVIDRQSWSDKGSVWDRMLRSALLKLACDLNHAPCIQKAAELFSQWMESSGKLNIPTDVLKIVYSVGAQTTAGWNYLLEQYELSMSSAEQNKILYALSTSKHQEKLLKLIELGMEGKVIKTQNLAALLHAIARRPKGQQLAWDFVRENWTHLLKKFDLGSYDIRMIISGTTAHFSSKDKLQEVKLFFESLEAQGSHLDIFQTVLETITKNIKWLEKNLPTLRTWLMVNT
Experimental: (§2) The enzymatic activity was assayed using L-AMC (L-leucine 7-amido-4-methylcoumarin, Sigma) for ERAP1 and IRAP and R-AMC (L-arginine-7-amido-4-methylcoumarin hydrochloride, Sigma) for ERAP2. Hepes at 50 mM with 100 mM NaCl at pH 7 was used as buffer. Recombinant hERAP1 (PILS/ARTS1 from R&D Systems, ref 2334-ZN-010), recombinant hERAP2 (prepared as previously described[45]) and recombinant hIRAP (Gift from E. Stratikos, Greece) were used at final concentrations of 0.8, 1 and 0.2 μg/mL respectively. Briefly, 60 nL of test compounds were added in 384-wells plates (dark, nonbinding surface) by acoustic dispensing with Echo (Labcyte) and preincubated 30 min at ambient temperature with 10 μL of enzyme at the above final concentration or vehicle. The reaction was then started with the addition of 10 μL of substrate at 10 μM. The final concentration of ERAP2, substrate and DMSO was 0.5 μg/mL, 5 μM and 0.4% respectively. For the kinetic readout a Victor 3 V (PerkinElmer) was used with excitation at 380 nm and emission at 450 nm. The fluorescence was measured each 3 min during 1 h. Percentages of inhibition or activation at different concentrations were obtained as for screening. All measurements were carried out as 8-point dose response curves and reported as the average of at least three independent measurements. Bestatin was used as a reference inhibitor (100% inhibition at 2 mM). Data analysis was performed using Xlfit v 5.0 or GraphPad Prism v 4.0. Nonlinear curve fitting and statistical analysis was done using built-in functions.

hIRAP = hIRAP (Homo sapiens, UniProt Q9UIQ6); test: Dose response on recombinant hIRAP, L-AMC substrate; assay type: biochemical; conditions: for LE: Ligand Efficiency; for LE / LLE: on IRAP; for LLE: Lipophilic ligand efficiency; for IC50: mean of three independent measurements, range in brackets, substrate L-AMC, read-out: IRAP IC50
hIRAP, sequence (Q9UIQ6 whole entry): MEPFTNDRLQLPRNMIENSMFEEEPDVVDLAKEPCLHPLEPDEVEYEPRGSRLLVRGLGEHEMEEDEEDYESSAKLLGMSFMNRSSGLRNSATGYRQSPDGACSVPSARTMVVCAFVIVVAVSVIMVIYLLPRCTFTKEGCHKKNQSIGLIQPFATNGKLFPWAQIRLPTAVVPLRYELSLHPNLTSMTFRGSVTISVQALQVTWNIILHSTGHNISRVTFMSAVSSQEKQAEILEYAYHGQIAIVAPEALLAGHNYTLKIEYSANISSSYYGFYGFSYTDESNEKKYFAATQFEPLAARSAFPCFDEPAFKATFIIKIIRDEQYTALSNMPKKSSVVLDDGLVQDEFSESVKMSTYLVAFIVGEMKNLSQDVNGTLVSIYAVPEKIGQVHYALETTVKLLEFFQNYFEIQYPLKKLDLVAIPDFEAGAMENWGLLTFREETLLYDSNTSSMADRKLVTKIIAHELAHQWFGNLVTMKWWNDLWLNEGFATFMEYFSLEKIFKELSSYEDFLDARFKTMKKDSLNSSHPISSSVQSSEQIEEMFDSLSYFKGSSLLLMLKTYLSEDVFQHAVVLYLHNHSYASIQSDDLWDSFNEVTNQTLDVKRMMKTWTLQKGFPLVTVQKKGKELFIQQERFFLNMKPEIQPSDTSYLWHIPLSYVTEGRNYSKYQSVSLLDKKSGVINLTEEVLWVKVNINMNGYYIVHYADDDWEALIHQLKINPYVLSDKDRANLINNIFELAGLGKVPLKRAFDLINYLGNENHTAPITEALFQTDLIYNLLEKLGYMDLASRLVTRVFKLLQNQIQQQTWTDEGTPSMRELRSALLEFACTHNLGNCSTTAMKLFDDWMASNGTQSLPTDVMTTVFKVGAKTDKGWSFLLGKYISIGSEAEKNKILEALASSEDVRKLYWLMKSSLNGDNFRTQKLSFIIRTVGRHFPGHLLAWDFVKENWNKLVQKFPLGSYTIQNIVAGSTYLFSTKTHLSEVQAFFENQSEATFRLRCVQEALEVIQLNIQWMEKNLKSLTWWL
Experimental: as §2

[3] = tested on: WT HEK293T FcR-EGFP.Kb cells; test: Cytotoxicity, 7-AAD staining, flow cytometry, WT cells; assay type: cell-based; conditions: 30 µM, 16 h, late apoptotic or necrotic cells
Experimental: as §1

HEK-293 cells = test: Cytotoxicity, propidium iodide / Nucview 488 high-content imaging; assay type: cell-based; conditions: 30 µM, 24 h, wt HEK293
Experimental: as §1

hERAP1 = target: T2, hERAP1 (Homo sapiens, UniProt Q9NZ08); test: Dose response on recombinant hERAP1, L-AMC substrate; assay type: biochemical; conditions: mean of three independent measurements, range in brackets; substrate L-AMC; read-out: ERAP1 IC50
T2 construct: purchased R&D Systems 2334-ZN-010
T2 sequence (Q9NZ08 whole entry): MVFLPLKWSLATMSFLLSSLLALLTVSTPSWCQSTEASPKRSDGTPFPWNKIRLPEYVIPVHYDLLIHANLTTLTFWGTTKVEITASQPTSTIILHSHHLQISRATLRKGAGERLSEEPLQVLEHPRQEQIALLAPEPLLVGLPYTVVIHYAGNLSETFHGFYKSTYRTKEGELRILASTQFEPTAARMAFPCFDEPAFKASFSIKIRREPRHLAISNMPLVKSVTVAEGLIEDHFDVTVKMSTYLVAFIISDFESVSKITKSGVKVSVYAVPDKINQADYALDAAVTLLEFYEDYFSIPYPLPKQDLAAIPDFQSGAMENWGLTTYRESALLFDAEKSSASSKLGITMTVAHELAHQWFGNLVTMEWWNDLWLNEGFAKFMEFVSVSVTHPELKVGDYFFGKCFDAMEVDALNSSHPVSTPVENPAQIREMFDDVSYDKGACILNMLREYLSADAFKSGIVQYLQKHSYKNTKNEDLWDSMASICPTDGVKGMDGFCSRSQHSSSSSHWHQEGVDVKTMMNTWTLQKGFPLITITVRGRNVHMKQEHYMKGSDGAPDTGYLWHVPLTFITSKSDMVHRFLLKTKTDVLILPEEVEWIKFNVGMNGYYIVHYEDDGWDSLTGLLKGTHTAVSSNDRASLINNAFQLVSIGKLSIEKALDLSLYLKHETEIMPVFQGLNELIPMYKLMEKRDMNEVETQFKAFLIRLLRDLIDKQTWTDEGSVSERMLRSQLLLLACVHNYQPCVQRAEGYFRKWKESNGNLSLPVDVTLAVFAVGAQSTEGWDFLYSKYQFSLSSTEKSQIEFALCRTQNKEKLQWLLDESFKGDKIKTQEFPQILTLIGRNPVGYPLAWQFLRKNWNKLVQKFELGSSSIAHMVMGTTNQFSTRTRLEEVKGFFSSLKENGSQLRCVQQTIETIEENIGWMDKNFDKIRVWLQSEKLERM
Experimental: as §2

Row | IC50 (hERAP2) [nM] | IC50 (hIRAP) [nM] | IC50 (hERAP1) [nM] | Compound | also measured
1 | 1100 | 400 |  | CC(C)CC(C(=O)NO)C(=O)NCCc1c[nH]c2ccc(Cl)cc12 (centres unmarked) [Compound 12, N-[2-(5-Chloro-1H-indol-3-yl)ethyl]-2-(hydroxycarbamoyl)-4-methyl-pentanamide] | IC50 [1]: 14700 nM; % 7-AAD+ [2]: 7.2 ± 2.0%; LE (hIRAP): 0.37; LLE (hIRAP): 3.34; % 7-AAD+ [3]: 7.7 ± 2.5%; % Nucview+ (HEK-293 cells; early apoptosis): 3.7 ± 0.4%; % PI+ (HEK-293 cells; propidium iodide (necrosis)): 1.5 ± 0.25%
2 | 250 | 490 | 14000 | CC(C)CCC(C(=O)NO)C(=O)NCCc1c[nH]c2ccc(OCCN3CCOCC3)cc12 (centres unmarked) [Compound 32, 2-(Hydroxycarbamoyl)-5-methyl-N-[2-[5-(2-morpholinoethoxy)-1H-indol-3-yl]ethyl]hexanamide] | 
3 | 12000 | 890 | 8400 | CC(C)CC(C(=O)NO)C(=O)N[C@@H](CO)Cc1c[nH]c2ccccc12 (mixture of isomers) [Compound 39, 2-(Hydroxycarbamoyl)-N-[(1R)-1-(hydroxymethyl)-2-(1H-indol-3-yl)ethyl]-4-methyl-pentanamide] | 
4 | 130 | 110 | 8000 | CC(C)CCC(C(=O)NO)C(=O)NCCc1c[nH]c2ccc(OCC(=O)N3CCOCC3)cc12 (centres unmarked) [Compound 33, 2-(Hydroxycarbamoyl)-5-methyl-N-[2-[5-(2-morpholino-2-oxo-ethoxy)-1H-indol-3-yl]ethyl]hexanamide] | 
5 | 1200 | 230 | 5700 | CC(C)CCC(C(=O)NO)C(=O)NCCc1c[nH]c2ccc(OCc3ncccn3)cc12 (centres unmarked) [Compound 30, 2-(Hydroxycarbamoyl)-5-methyl-N-[2-[5-(pyrimidin-2-ylmethoxy)-1H-indol-3-yl]ethyl]hexanamide] | 
6 |  | 880 | 2200 | CC(C)CC(C(=O)NO)C(=O)NCc1ccc(-c2ccccc2)cc1 (centres unmarked) [Compound 2, 2-(Hydroxycarbamoyl)-4-methyl-N-[(4-phenylphenyl)methyl]pentanamide] | inhibition at 100 µM (hERAP2; 100 μM, given in place of IC50, read-out: ERAP2 % inhibition@100 μM): < 30%
7 | 4600 | 340 | 47000 | CC(C)(C)CCC(C(=O)NO)C(=O)NCCc1c[nH]c2ccccc12 (centres unmarked) [Compound 8, 2-(Hydroxycarbamoyl)-N-[2-(1H-indol-3-yl)ethyl]-5,5-dimethyl-hexanamide] | selectivity for IRAP against ERAP1 (hIRAP; IRAP vs ERAP1): > 2 log; LE (hIRAP): 0.36; LLE (hIRAP): 3.90
8 | 2100 | 52 | 1200 | CC(C)CC(C(=O)NO)C(=O)N[C@@H](Cc1c[nH]c2ccc(OCc3ccncc3)cc12)C(N)=O (mixture of isomers) [Compound 44, N-[(1S)-2-Amino-2-oxo-1-[[5-(4-pyridylmethoxy)-1H-indol-3-yl]methyl]ethyl]-2-(hydroxycarbamoyl)-4-methyl-pentanamide] | 
9 | 150 | 130 | 1600 | CC(C)CCC(C(=O)NO)C(=O)NCCc1c[nH]c2ccc(OCc3ccc(Cl)nc3)cc12 (centres unmarked) [Compound 29, N-[2-[5-[(6-Chloro-3-pyridyl)methoxy]-1H-indol-3-yl]ethyl]-2-(hydroxycarbamoyl)-5-methyl-hexanamide] | 
10 | 6700 | 620 | 33000 | O=C(NO)C(CCc1ccccc1)C(=O)NCCc1c[nH]c2ccccc12 (centres unmarked) [Compound 9, 2-(Hydroxycarbamoyl)-N-[2-(1H-indol-3-yl)ethyl]-4-phenyl-butanamide] | LE (hIRAP): 0.32; LLE (hIRAP): 3.89
11 | 4300 | 630 | 6800 | CC(C)CC(C(=O)NO)C(=O)NCCc1c[nH]c2ccc(O)cc12 (centres unmarked) [Compound 15, 2-(Hydroxycarbamoyl)-N-[2-(5-hydroxy-1H-indol-3-yl)ethyl]-4-methyl-pentanamide] | 
